Results reported in PMC4914250, “Cancer therapeutic approach based on conformational stabilization of mutant p53 protein by small peptides” (Oncotarget, 2016).

Key:
mutp53^R175H = assay: ELISA of mutp53 DNA binding (p53RE oligonucleotide), H1299-p53^R175H cell extract; type: biochemical, human; settings: score 0-6 compared to positive control; mutp53 DNA binding
Method: (§1) Cell extracts were added to ELISA plates coated with the indicated antibodies to allow mutp53 to react with the peptides and antibodies. αp53-HRP Ab was used for assessment of p53 levels. Numbers represent ratio of absorbance between the PAb1620 and PAb240 samples. All reads were normalized to the control […] reading of each extract. MCF7 (WTp53) and H1299-mutp53^A135V (tsp53) cells were used as positive controls for the WTp53 conformation (1620/240 ratio equals or exceeds 5:1). […] 96 well plates were coated with anti-p53 antibody, cell extracts containing p53 were reacted with oligonucleotides that contain a p53RE consensus binding site, labeled with biotin, in the presence or absence (NT) of test peptides. Streptavidin-HRP is used to quantify the amount of oligos in the well. TMB assay was performed to determine bound mutp53 levels (450nm). MCF7 and the H1299-mutp53^A135V(TS) cells serve as positive controls for WTp53. C.and D. - Bar graphs illustrating the effect of various selected peptides on mut-p53 dependent expression on cell viability. […] D, ES2 cells expressing endogenous mutp53 (blue bars) and ES2 cells knocked out for p53 by CRISPR construct (light blue bars). Cell lines were treated with selected peptides, Cis-platinum was used as positive control for cell death. 48 hours after treatment, cells were washed with PBS, and the remaining attached cells were stained with Crystal violet and washed 4 times with PBS. Stained cells were dissolved in 10% acetic acid and plates were taken for optical density measurement at […]. TEXT PRINTED IN THE PICTURE: (A) pCAP1: 0.87 | (A) pCAP2: 0.53 | (A) pCAP3: 0.59 | (A) pCAP4: 0.59 | (A) pCAP5: 0.60 | (A) pCAP6: 0.75 | (A) pCAP23: 1.06 | (A) pCAP24: 1.44 | (A) pCAP36: 1.25 | (A) pCAP47: 1.54 | (A) pCAP54: 1.54 | (A) pCAP60: 2.73 | (A) pCAP68: 2.22 | (A) pCAP83: 1.56 | (A) pCAP97: 2.45 DOUBTS OF THE COPYIST ABOUT THIS PICTURE: Panel A: the numbers over the bars are printed very small, rotated and blurred, so 3, 5, 6, 8 and 9 cannot be told apart with certainty. All values are best readings: pCAP1 0.87, pCAP2 0.53, pCAP3 0.59, pCAP4 0.59, pCAP5 0.60, pCAP6 0.75, pCAP23 1.06, pCAP24 1.44, pCAP36 1.25, pCAP47 1.54, pCAP54 1.54, pCAP60 2.73, pCAP68 2.22, pCAP83 1.56, pCAP97 2.45 / Panel A: the picture prints no measure with the numbers over the bars, so they are given as bare numbers / Panel A: numbers are also printed over the controls, which are not substances and are left out of lines. Best readings: NT 0.60, 60° 30'' 0.48, 60° 1' 0.37, 60° 3' 0.13, 60° 10' 0.05, MCF7 3.32, H1299TS 3.25
Next, we assessed the ability of our selected peptides to restore sequence-specific DNA binding to mutp53. To that end we employed an ELISA kit (R&D) in which cell extracts containing p53 are reacted with a biotinylated p53RE oligonucleotide and then incubated in wells coated with anti-p53 antibody, which is expected to trap the p53 protein and its associated p53RE DNA. The amount of p53RE retained in each well via p53 binding is quantified by incubation with streptavidin-HRP. […] Again, extracts of MCF7 and H1299-tsp53^A135V cells served as positive controls for WTp53 DNA binding activity. […] Importantly, there was substantial overlap between the peptides that stabilized the WT conformation (Figure 2A) and those that increased specific DNA binding (Figure 2B), further reinforcing the conclusion that those peptides stabilize mutp53 in a functional state. This was not seen with the randomly selected peptides 1-6 (black bars).
For these experiments, a commercial p53/DNA binding kit of “R&D” (Cat-DYC1355-5 Lot-1273366FA) was used, in accordance with manufacturer guide lines. Briefly, 96 well plates we coated with anti-p53 antibody overnight. Cell extracts containing p53 are reacted with an oligonucleotide that contains a p53 consensus binding site (provided in the kit), labeled with Biotin, in the presence or absence (NT) of test peptides. […]

[1] = test system: H1299 cells expressing mutp53^R175H; assay: Crystal violet viability assay, H1299; type: cell-based; settings: score 0-6 compared to positive control, 48 h
Method: Cell extracts were added to ELISA plates coated with the indicated antibodies to allow mutp53 to react with the peptides and antibodies. αp53-HRP Ab was used for assessment of p53 levels. Numbers represent ratio of absorbance between the PAb1620 and PAb240 samples. All reads were normalized to the control PAb241 reading of each extract. MCF7 (WTp53) and H1299-mutp53^A135V (tsp53) cells were used as positive controls for the WTp53 conformation (1620/240 ratio equals or exceeds 5:1). […] 96 well plates were coated with anti-p53 antibody, cell extracts containing p53 were reacted with oligonucleotides that contain a p53RE consensus binding site, labeled with biotin, in the presence or absence (NT) of test peptides. Streptavidin-HRP is used to quantify the amount of oligos in the well. TMB assay was performed to determine bound mutp53 levels (450nm). MCF7 and the H1299-mutp53^A135V(TS) cells serve as positive controls for WTp53. C.and D. - Bar graphs illustrating the effect of various selected peptides on mut-p53 dependent expression on cell viability. […] D, ES2 cells expressing endogenous mutp53 (blue bars) and ES2 cells knocked out for p53 by CRISPR construct (light blue bars). Cell lines were treated with selected peptides, Cis-platinum was used as positive control for cell death. 48 hours after treatment, cells were washed with PBS, and the remaining attached cells were stained with Crystal violet and washed 4 times with PBS. Stained cells were dissolved in 10% acetic acid and plates were taken for optical density measurement at 595nM.
This simple assay measures the total number of cells, thus reflecting the combination of both cell death and growth arrest effects. […] After 48 hours of treatment cells were stained with crystal violet and OD at 595nm was determined.
Values on the Y-axis reflect the number of cells in the treated wells, normalized to the non-treated samples (NT; red bars).

ES2 ovarian cancer cells = assay: Crystal violet viability assay, ES2; type: cell-based, human; set-up: key to Viability ES2: score 0- no effect-white; score 6- as or more effective than positive control- black; settings: score 0-6 compared to positive control, 48 h
Method: as §1
(§2) We also performed a similar analysis on ES2 ovarian cancer cells, which express endogenous mp53^S241F, compared to ES2 cells in which p53 was stably knocked out using CRISPR/Cas9 (ES2 p53KO Figure S1F), to control for specificity for mutp53 (Figure 2D). In ES2 cells, too, some of the peptides caused a significant reduction in cell numbers, more prominent in the mutp53 expressing cells than in their p53KO counterparts. […] Overall, we performed this analysis on several different mutp53-expressing human cancer cell lines, and the results are summarized in Table S3. Based on this comprehensive picture, we reduced the number of most promising candidate lead peptides to 30. These peptides were then synthesized with an 8 arginine C-terminal tail for enhanced delivery across cell membranes (pCAPs 130-160); for clarity, peptides are referred to by their original number, with an R for poly arginine (see Table S3).
(§3) Cells were cultured in 96 wells plates with 2500-4000 cells/well. Serial dilutions of different peptides were added and the plates incubated for additional 48 h at 37°C. Then medium was removed and cell viability was determined by staining the cells with crystal violet (0.05%) in methanol/PBS (1:5, v/v), for 10 min, followed by 3 washes with PBS. 10% acetic acid was added to each well for 10 min. OD was determined at 595 nm.

SK3 = assay: Crystal violet viability assay, SK3; type: cell-based, human; set-up: key: score 0- no effect-white; score 6- as or more effective than positive control- black; settings: score 0-6 compared to positive control, 48 h
Description: as §2, §3

WI38 = assay: Crystal violet viability assay, WI38; type: cell-based; set-up: key: score 0- no effect-white; score 6- as or more effective than positive control- black; settings: score 0-6 compared to positive control, 48 h
Method: as §3

EP156 = assay: Crystal violet viability assay, EP156; type: cell-based; set-up: key: score 0- no effect-white; score 6- as or more effective than positive control- black; settings: score 0-6 compared to positive control, 48 h
Description: as §2, §3

mutp53 = assay: Summary score of peptide functional screens; settings: overall score over conformation, DNA binding, viability and PCR screens

Substance	DNA H1299 (mutp53^R175H)	Viability H1299 [1]	Viability ES2 (ES2 ovarian cancer cells)	Viability SK3 (SK3)	Viability WI38 (WI38)	Viability EP156 (EP156)	SCORE (mutp53)
SFILFIRRGRLGRRRRRRRRR [pCAP-60R, pCAP-60 with poly arginine tail]	3	2	3	5	2	2	32
WNHHHSTPHPAHRRRRRR [pCAP-97R, pCAP-97 with poly arginine tail]	4	4	4	3	4	4	46
myr-RRIRDPRILLLHFD [pCAP-325]	4	5	4	3	6	4	53
myr-RRKHNKHRPEPDSDER [pCAP-221]	2	2	6	5	6	5	58
myr-RRKILFIRLMHNKH [pCAP-227, myristoylated peptide, similarity to GAS2]	3	5	5	6	3	4	56
myr-RRLIVRILKLPNPPER [pCAP-242]	4	5	5	5	4	6	55
